Source: paper PMC10118179, “Tannic acid, an IL-1β-direct binding compound, ameliorates IL-1β-induced inflammation and cartilage degradation by hindering IL-1β-IL-1R1 interaction” (PLOS ONE, 2023)

Target: T1, Interleukin-1β (IL-1β) (Homo sapiens, UniProt P01584)
T1 construct: gene IL1B; recombinant human IL-1β
Assay: SPR (Biacore T200, IL-1β immobilized on CM5 chip)
Format: binding

T1 sequence (P01584 117-269): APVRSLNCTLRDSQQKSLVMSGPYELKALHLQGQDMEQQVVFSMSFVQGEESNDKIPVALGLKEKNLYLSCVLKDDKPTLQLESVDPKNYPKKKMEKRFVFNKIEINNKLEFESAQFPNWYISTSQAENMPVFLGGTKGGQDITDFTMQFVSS

**Q.** O=C(OC[C@H]1O[C@@H](OC(=O)c2cc(O)c(O)c(OC(=O)c3cc(O)c(O)c(O)c3)c2)[C@H](OC(=O)c2cc(O)c(O)c(OC(=O)c3cc(O)c(O)c(O)c3)c2)[C@@H](OC(=O)c2cc(O)c(O)c(OC(=O)c3cc(O)c(O)c(O)c3)c2)[C@@H]1OC(=O)c1cc(O)c(O)c(OC(=O)c2cc(O)c(O)c(O)c2)c1)c1cc(O)c(O)c(OC(=O)c2cc(O)c(O)c(O)c2)c1 [TA, Tannic acid] was tested. Which Kd did it give?
**A.** 822 nM
